Source: PubChem BioAssay AID1963834 (Molecular Pharmacology Branch, DTP, NCI, 2024)

Tested on: 873145-292-R-J1-PDC complex spheroid viability
Experiment: Anticancer human tumor 873145-292-R-J1-PDC patient-derived renal clear cell carcinoma cell line growth inhibition [POLQ]
Settings: for IC50: curve of first compound; for viability, T/C: stronger effect = lower value
In short: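 Growth inhibition in 3D: complex spheroids (tumor PDC, HUVEC, MSC) treated with POLQ inhibitor combinations; where Cmax unknown, highest tested concentration 10 microM, except SN-38 at 1 microM.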

[1] = second compound 0.0316 µM, first compound 0.0316 µM
[2] = second compound 0.0316 µM, first compound 0.1 µM
[3] = second compound 0.0316 µM, first compound 0.316 µM
[4] = second compound 0.0316 µM, first compound 1 µM
[5] = second compound 0.0316 µM, first compound 3.16 µM
[6] = second compound 0.0316 µM, first compound 10 µM
[7] = second compound 0.1 µM, first compound 0.0316 µM
[8] = second compound 0.1 µM, first compound 0.1 µM
[9] = second compound 0.1 µM, first compound 0.316 µM
[10] = second compound 0.1 µM, first compound 1 µM
[11] = second compound 0.1 µM, first compound 3.16 µM
[12] = second compound 0.1 µM, first compound 10 µM
[13] = second compound 0.316 µM, first compound 0.0316 µM
[14] = second compound 0.316 µM, first compound 0.1 µM
[15] = second compound 0.316 µM, first compound 0.316 µM
[16] = second compound 0.316 µM, first compound 1 µM
[17] = second compound 0.316 µM, first compound 3.16 µM
[18] = second compound 0.316 µM, first compound 10 µM
[19] = second compound 1 µM, first compound 0.0316 µM
[20] = second compound 1 µM, first compound 0.1 µM
[21] = second compound 1 µM, first compound 0.316 µM
[22] = second compound 1 µM, first compound 1 µM
[23] = second compound 1 µM, first compound 3.16 µM
[24] = second compound 1 µM, first compound 10 µM
[25] = second compound 3.16 µM, first compound 0.0316 µM
[26] = second compound 3.16 µM, first compound 0.1 µM
[27] = second compound 3.16 µM, first compound 0.316 µM
[28] = second compound 3.16 µM, first compound 1 µM
[29] = second compound 3.16 µM, first compound 3.16 µM
[30] = second compound 3.16 µM, first compound 10 µM
[31] = second compound 10 µM, first compound 0.0316 µM
[32] = second compound 10 µM, first compound 0.1 µM
[33] = second compound 10 µM, first compound 0.316 µM
[34] = second compound 10 µM, first compound 1 µM
[35] = second compound 10 µM, first compound 3.16 µM
[36] = second compound 10 µM, first compound 10 µM
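Further: spheroids exposed to compounds for 7 days before viability readout.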
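Wherever viability, T/C is given: luminescence signal used as surrogate for viable cell content; 100% = DMSO vehicle control viability.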

With C=CC(=O)N1CCN(c2nc(=O)n(-c3c(C)ccnc3C(C)C)c3nc(-c4c(O)cccc4F)c(F)cc23)C(C)C1 (centres undefined) + Cc1cccc(N(C)C(=O)C2C(O)CCN2c2nc(C)cc(C(F)(F)F)c2C#N)c1 as the compound, how does the IC50 (second compound 0.0316 µM) read?
Its IC50 is greater than 10 µM.

What about the IC50 (second compound 0.1 µM) of the same compound?
Its IC50 is greater than 10 µM.

What about the IC50 (second compound 0.316 µM) of the same compound?
The IC50 was greater than 10 µM.

And the IC50 (second compound 1 µM)?
Its IC50 is greater than 10 µM.

And the IC50 (second compound 3.16 µM)?
The IC50 was greater than 10 µM.

And the IC50 (second compound 10 µM)?
Its IC50 is greater than 10 µM.

What about the viability, T/C [1] of the same compound?
Its viability, T/C is 103%.

What about the viability, T/C [2] of the same compound?
Its viability, T/C is 108%.

And the viability, T/C [3]?
Its viability, T/C is 107%.

What about the viability, T/C [4] of the same compound?
The viability, T/C was 120%.

What about the viability, T/C [5] of the same compound?
Its viability, T/C is 141%.

What about the viability, T/C [6] of the same compound?
The viability, T/C was 138%.

And the viability, T/C [7]?
The viability, T/C was 104%.

What about the viability, T/C [8] of the same compound?
Its viability, T/C is 110%.

What about the viability, T/C [9] of the same compound?
The viability, T/C was 115%.

And the viability, T/C [10]?
Its viability, T/C is 133%.

And the viability, T/C [11]?
The viability, T/C was 128%.

What about the viability, T/C [12] of the same compound?
The viability, T/C was 126%.

And the viability, T/C [13]?
The viability, T/C was 108%.

And the viability, T/C [14]?
Its viability, T/C is 111%.

And the viability, T/C [15]?
The viability, T/C was 119%.

And the viability, T/C [16]?
The viability, T/C was 123%.

And the viability, T/C [17]?
Its viability, T/C is 143%.

What about the viability, T/C [18] of the same compound?
The viability, T/C was 125%.

What about the viability, T/C [19] of the same compound?
Its viability, T/C is 114%.

What about the viability, T/C [20] of the same compound?
Its viability, T/C is 100%.

And the viability, T/C [21]?
Its viability, T/C is 111%.

And the viability, T/C [22]?
Its viability, T/C is 123%.

And the viability, T/C [23]?
Its viability, T/C is 144%.

And the viability, T/C [24]?
Its viability, T/C is 117%.

And the viability, T/C [25]?
The viability, T/C was 105%.

And the viability, T/C [26]?
The viability, T/C was 110%.

What about the viability, T/C [27] of the same compound?
The viability, T/C was 106%.

And the viability, T/C [28]?
The viability, T/C was 111%.

And the viability, T/C [29]?
The viability, T/C was 136%.

What about the viability, T/C [30] of the same compound?
The viability, T/C was 124%.

What about the viability, T/C [31] of the same compound?
The viability, T/C was 110%.

And the viability, T/C [32]?
The viability, T/C was 101%.

And the viability, T/C [33]?
The viability, T/C was 103%.

What about the viability, T/C [34] of the same compound?
The viability, T/C was 111%.

And the viability, T/C [35]?
Its viability, T/C is 120%.

What about the viability, T/C [36] of the same compound?
Its viability, T/C is 128%.

What does the source list for CC(C)n1c(=O)n(C)c2cnc3cc(F)c(-c4ccc(OCCCN5CCCCC5)nc4)cc3c21 + Cc1cccc(N(C)C(=O)C2C(O)CCN2c2nc(C)cc(C(F)(F)F)c2C#N)c1?
IC50 (second compound 0.0316 µM): > 10 µM; IC50 (second compound 0.1 µM): > 10 µM; IC50 (second compound 0.316 µM): > 10 µM; IC50 (second compound 1 µM): > 10 µM; IC50 (second compound 3.16 µM): > 10 µM; IC50 (second compound 10 µM): > 10 µM; viability, T/C [1]: 84.6%; viability, T/C [2]: 102%; viability, T/C [3]: 96.9%; viability, T/C [4]: 100%; viability, T/C [5]: 89.2%; viability, T/C [6]: 78.1%; viability, T/C [7]: 94.7%; viability, T/C [8]: 103%; viability, T/C [9]: 100%; viability, T/C [10]: 90.4%; viability, T/C [11]: 85.9%; viability, T/C [12]: 76.4%; viability, T/C [13]: 105%; viability, T/C [14]: 99%; viability, T/C [15]: 79.7%; viability, T/C [16]: 99.8%; viability, T/C [17]: 98.8%; viability, T/C [18]: 73.3%; viability, T/C [19]: 106%; viability, T/C [20]: 106%; viability, T/C [21]: 102%; viability, T/C [22]: 91.8%; viability, T/C [23]: 89.2%; viability, T/C [24]: 72.4%; viability, T/C [25]: 91%; viability, T/C [26]: 91.8%; viability, T/C [27]: 114%; viability, T/C [28]: 101%; viability, T/C [29]: 107%; viability, T/C [30]: 69.4%; viability, T/C [31]: 88.8%; viability, T/C [32]: 98.6%; viability, T/C [33]: 104%; viability, T/C [34]: 90.2%; viability, T/C [35]: 87.8%; viability, T/C [36]: 66.4%
